What all share (experiment): relative viability (nuclei count vs DMSO), 5 days (fraction); higher = more cells survive
Compound in the test “XMD8-85 + Bortezomib”: CN1CCN(CC1)C2=CC(=C(C=C2)NC3=NC=C4C(=N3)N(C5=CC=CC=C5C(=O)N4C)C)OC [XMD8-85] + CC(C)C[C@H](NC(=O)[C@H](Cc1ccccc1)NC(=O)c1cnccn1)B(O)O [Bortezomib] (partner 0.002 µM)
The essentials:
(§1)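 After 5 days of treatment, lung cancer cells in 1536-well plates were fixed and stained in a single step (final 0.05% Triton X-100, 1% formaldehyde, 1 ug/ml Hoechst) and their nuclei counted on 4× images. Treatment had been applied by pin tool the day after seeding as one drug alone or as a fixed anchor-drug dose with five library-drug doses (not always all listed) in √10 steps. Relative viability is the nuclei count of treated wells divided by that of vehicle wells, and values are medians of duplicate plates.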

Compound in the test “4EGI-1 + Dasatinib”: O=C(O)C(Cc1ccccc1[N+](=O)[O-])=NNc1nc(-c2ccc(Cl)c(Cl)c2)cs1 (mixture of isomers) [4EGI-1] + Cc1nc(Nc2ncc(C(=O)Nc3c(C)cccc3Cl)s2)cc(N2CCN(CCO)CC2)n1 [Dasatinib] (partner 0.075 µM)
The essentials:
as §1

Compound in the test “XMD8-85 + Olaparib”: CN1CCN(CC1)C2=CC(=C(C=C2)NC3=NC=C4C(=N3)N(C5=CC=CC=C5C(=O)N4C)C)OC [XMD8-85] + O=C(c1cc(Cc2n[nH]c(=O)c3ccccc23)ccc1F)N1CCN(C(=O)C2CC2)CC1 [Olaparib] (partner 8 µM)
The essentials: as §1

Compound in the test “XMD8-85 + Pictilisib”: CN1CCN(CC1)C2=CC(=C(C=C2)NC3=NC=C4C(=N3)N(C5=CC=CC=C5C(=O)N4C)C)OC [XMD8-85] + CS(=O)(=O)N1CCN(Cc2cc3nc(-c4cccc5[nH]ncc45)nc(N4CCOCC4)c3s2)CC1 [Pictilisib] (partner 1 µM)
The essentials:
as §1

In the case of NCI-H441, the relative viability with XMD8-85 + Bortezomib (first compound 0.08 µM) came out at 0.509; in the test with XMD8-85 + Bortezomib (first compound 0.253 µM) it was 0.442; with XMD8-85 + Bortezomib (first compound 0.8 µM), 0.392; with XMD8-85 + Bortezomib (first compound 2.53 µM), 0.581; with XMD8-85 + Bortezomib (first compound 8 µM), 0.367; in the test with 4EGI-1 + Dasatinib (first compound 0.5 µM), 0.609. In addition, the relative viability is 0.547 with 4EGI-1 + Dasatinib (first compound 1.581 µM); 0.536 in the test with 4EGI-1 + Dasatinib (first compound 5 µM); 0.565 with 4EGI-1 + Dasatinib (first compound 15.81 µM); 0.229 in the test with 4EGI-1 + Dasatinib (first compound 50 µM); 0.405 with XMD8-85 + Olaparib (first compound 0.08 µM); 0.553 with XMD8-85 + Olaparib (first compound 0.253 µM). Moreover, the relative viability with XMD8-85 + Olaparib (first compound 0.8 µM) worked out at 0.421; with XMD8-85 + Olaparib (first compound 2.53 µM), 0.538; in the test with XMD8-85 + Olaparib (first compound 8 µM), 0.371; in the test with XMD8-85 + Pictilisib (first compound 0.08 µM), 0.405; with XMD8-85 + Pictilisib (first compound 0.253 µM), 0.389; in the test with XMD8-85 + Pictilisib (first compound 0.8 µM) it was 0.608. The relative viability turned out to be 0.438 with XMD8-85 + Pictilisib (first compound 2.53 µM) and 0.389 with XMD8-85 + Pictilisib (first compound 8 µM).
On to NCI-H1437, for which the relative viability was determined as 0.497 with XMD8-85 + Bortezomib (first compound 0.08 µM); 0.443 with XMD8-85 + Bortezomib (first compound 0.253 µM); 0.438 in the test with XMD8-85 + Bortezomib (first compound 0.8 µM); 0.541 with XMD8-85 + Bortezomib (first compound 2.53 µM); 0.378 in the test with XMD8-85 + Bortezomib (first compound 8 µM); 0.427 in the test with 4EGI-1 + Dasatinib (first compound 0.5 µM). Also, the relative viability with 4EGI-1 + Dasatinib (first compound 1.581 µM) worked out at 0.409; with 4EGI-1 + Dasatinib (first compound 5 µM), 0.421; with 4EGI-1 + Dasatinib (first compound 15.81 µM), 0.232; in the test with 4EGI-1 + Dasatinib (first compound 50 µM) it was 0.103; with XMD8-85 + Olaparib (first compound 0.08 µM), 0.611; in the test with XMD8-85 + Olaparib (first compound 0.253 µM), 0.62. For the same cell line, the relative viability turned out to be 0.657 with XMD8-85 + Olaparib (first compound 0.8 µM); 0.611 in the test with XMD8-85 + Olaparib (first compound 2.53 µM); 0.439 with XMD8-85 + Olaparib (first compound 8 µM); 0.4 with XMD8-85 + Pictilisib (first compound 0.08 µM); 0.376 with XMD8-85 + Pictilisib (first compound 0.253 µM); 0.433 with XMD8-85 + Pictilisib (first compound 0.8 µM). In addition, the relative viability in the test with XMD8-85 + Pictilisib (first compound 2.53 µM) was found to be 0.333; with XMD8-85 + Pictilisib (first compound 8 µM), 0.318.
As to LU99A, the relative viability worked out at 1.11 with XMD8-85 + Bortezomib (first compound 0.08 µM); 1.21 with XMD8-85 + Bortezomib (first compound 0.253 µM); 1.18 in the test with XMD8-85 + Bortezomib (first compound 0.8 µM); 1.23 with XMD8-85 + Bortezomib (first compound 2.53 µM); 1 with XMD8-85 + Bortezomib (first compound 8 µM); 0.615 with 4EGI-1 + Dasatinib (first compound 0.5 µM). The relative viability was determined as 0.405 with 4EGI-1 + Dasatinib (first compound 1.581 µM); 0.54 with 4EGI-1 + Dasatinib (first compound 5 µM); 0.449 in the test with 4EGI-1 + Dasatinib (first compound 15.81 µM); 0.235 with 4EGI-1 + Dasatinib (first compound 50 µM); 0.247 with XMD8-85 + Olaparib (first compound 0.08 µM); 0.154 with XMD8-85 + Olaparib (first compound 0.253 µM). Also, the relative viability with XMD8-85 + Olaparib (first compound 0.8 µM) is 0.238; with XMD8-85 + Olaparib (first compound 2.53 µM) it was 0.242; with XMD8-85 + Olaparib (first compound 8 µM) it was 0.218; in the test with XMD8-85 + Pictilisib (first compound 0.08 µM) it was 0.32; with XMD8-85 + Pictilisib (first compound 0.253 µM) it was 0.302; with XMD8-85 + Pictilisib (first compound 0.8 µM), 0.339. The relative viability with XMD8-85 + Pictilisib (first compound 2.53 µM) was found to be 0.367; in the test with XMD8-85 + Pictilisib (first compound 8 µM), 0.33.
NCI-H2347: the relative viability with XMD8-85 + Bortezomib (first compound 0.08 µM) came to 1.2; with XMD8-85 + Bortezomib (first compound 0.253 µM), 1.09; in the test with XMD8-85 + Bortezomib (first compound 0.8 µM), 0.824; with XMD8-85 + Bortezomib (first compound 2.53 µM) it was 0.921; with XMD8-85 + Bortezomib (first compound 8 µM), 0.407; with 4EGI-1 + Dasatinib (first compound 0.5 µM), 0.339. Moreover, the relative viability with 4EGI-1 + Dasatinib (first compound 5 µM) was 0.318; in the test with 4EGI-1 + Dasatinib (first compound 15.81 µM) it was 0.305; with 4EGI-1 + Dasatinib (first compound 50 µM), 0.336; in the test with XMD8-85 + Olaparib (first compound 0.08 µM) it was 0.55; with XMD8-85 + Olaparib (first compound 0.253 µM), 0.598; in the test with XMD8-85 + Olaparib (first compound 0.8 µM), 0.617. Further, the relative viability with XMD8-85 + Olaparib (first compound 2.53 µM) came to 0.619; with XMD8-85 + Olaparib (first compound 8 µM), 0.559; in the test with XMD8-85 + Pictilisib (first compound 0.08 µM) it was 0.637; with XMD8-85 + Pictilisib (first compound 0.253 µM), 0.531; in the test with XMD8-85 + Pictilisib (first compound 0.8 µM), 0.555; with XMD8-85 + Pictilisib (first compound 2.53 µM), 0.437. Further, the relative viability with XMD8-85 + Pictilisib (first compound 8 µM) worked out at 0.604.
EKVX: the relative viability with XMD8-85 + Bortezomib (first compound 0.08 µM) was found to be 1.08; with XMD8-85 + Bortezomib (first compound 0.253 µM) it was 1.11; with XMD8-85 + Bortezomib (first compound 0.8 µM) it was 1.09; in the test with XMD8-85 + Bortezomib (first compound 2.53 µM), 1.13; in the test with XMD8-85 + Bortezomib (first compound 8 µM), 1; in the test with 4EGI-1 + Dasatinib (first compound 0.5 µM) it was 0.529. Besides, the relative viability in the test with 4EGI-1 + Dasatinib (first compound 1.581 µM) was 0.641; with 4EGI-1 + Dasatinib (first compound 5 µM), 0.443; in the test with 4EGI-1 + Dasatinib (first compound 15.81 µM), 0.298; with 4EGI-1 + Dasatinib (first compound 50 µM), 0.19; with XMD8-85 + Olaparib (first compound 0.08 µM), 0.756; in the test with XMD8-85 + Olaparib (first compound 0.253 µM), 0.83. Besides, the relative viability with XMD8-85 + Olaparib (first compound 0.8 µM) was 0.998; in the test with XMD8-85 + Olaparib (first compound 2.53 µM), 0.898; in the test with XMD8-85 + Olaparib (first compound 8 µM) it was 0.901; with XMD8-85 + Pictilisib (first compound 0.08 µM), 0.454; in the test with XMD8-85 + Pictilisib (first compound 0.253 µM), 0.467; with XMD8-85 + Pictilisib (first compound 0.8 µM), 0.416. The relative viability in the test with XMD8-85 + Pictilisib (first compound 2.53 µM) is 0.451; with XMD8-85 + Pictilisib (first compound 8 µM), 0.441.
For H3255, the relative viability in the test with XMD8-85 + Bortezomib (first compound 0.08 µM) is 0.856; in the test with XMD8-85 + Bortezomib (first compound 0.253 µM) it was 0.787; with XMD8-85 + Bortezomib (first compound 2.53 µM) it was 0.741; with XMD8-85 + Bortezomib (first compound 8 µM), 0.29; in the test with 4EGI-1 + Dasatinib (first compound 0.5 µM) it was 0.361; with 4EGI-1 + Dasatinib (first compound 1.581 µM), 0.321. Moreover, the relative viability with 4EGI-1 + Dasatinib (first compound 5 µM) is 0.412; with 4EGI-1 + Dasatinib (first compound 15.81 µM), 0.324; in the test with 4EGI-1 + Dasatinib (first compound 50 µM), 0.322; in the test with XMD8-85 + Olaparib (first compound 0.08 µM), 0.581; in the test with XMD8-85 + Olaparib (first compound 0.253 µM), 0.603; with XMD8-85 + Olaparib (first compound 0.8 µM), 0.512. The relative viability with XMD8-85 + Olaparib (first compound 2.53 µM) is 0.504; with XMD8-85 + Olaparib (first compound 8 µM), 0.369; in the test with XMD8-85 + Pictilisib (first compound 0.08 µM), 0.565; in the test with XMD8-85 + Pictilisib (first compound 0.253 µM) it was 0.465; in the test with XMD8-85 + Pictilisib (first compound 2.53 µM), 0.531; with XMD8-85 + Pictilisib (first compound 8 µM) it was 0.414.
Regarding ABC-1, the relative viability in the test with XMD8-85 + Bortezomib (first compound 0.08 µM) came out at 0.246; with XMD8-85 + Bortezomib (first compound 0.253 µM) it was 0.254; in the test with XMD8-85 + Bortezomib (first compound 0.8 µM), 0.302; in the test with XMD8-85 + Bortezomib (first compound 2.53 µM), 0.252; in the test with XMD8-85 + Bortezomib (first compound 8 µM), 0.22; with 4EGI-1 + Dasatinib (first compound 0.5 µM), 0.585. Besides, the relative viability stood at 0.501 in the test with 4EGI-1 + Dasatinib (first compound 1.581 µM); 0.586 with 4EGI-1 + Dasatinib (first compound 5 µM); 0.38 with 4EGI-1 + Dasatinib (first compound 15.81 µM); 0.192 with 4EGI-1 + Dasatinib (first compound 50 µM); 0.919 with XMD8-85 + Olaparib (first compound 0.08 µM); 0.864 in the test with XMD8-85 + Olaparib (first compound 0.253 µM). For the same cell line, the relative viability with XMD8-85 + Olaparib (first compound 0.8 µM) amounted to 0.781; with XMD8-85 + Olaparib (first compound 2.53 µM) it was 0.764; in the test with XMD8-85 + Olaparib (first compound 8 µM), 0.795; in the test with XMD8-85 + Pictilisib (first compound 0.08 µM), 0.628; with XMD8-85 + Pictilisib (first compound 0.253 µM), 0.614; with XMD8-85 + Pictilisib (first compound 0.8 µM), 0.942. Besides, the relative viability with XMD8-85 + Pictilisib (first compound 2.53 µM) is 0.746.

The values are drawn from the supplement of paper PMC10307832.
